# Source: patent US10975079B2, “4-amino-3-phenylamino-6-phenylpyrazolo[3,4-d]pyrimidine derivatives for use as BCRP inhibitors in therapeutic treatments” (SCANDION ONCOLOGY A/S, priority 2015, dated 2021)
# Key:
# BCRP = molecular target: T1, BCRP (Homo sapiens, UniProt Q9UNQ0); experiment: BCRP fluorimetric inhibition assay, Hoechst 33342 substrate, recombinant CHO-K1 cells; type: cell-based; conditions: Hoechst 33342 (5 μm) substrate, 20 min at 37° C., fluorimetry
# T1 construct: expressed in transfected cells; host or cells: CHO-K1
# T1 sequence (Q9UNQ0 1-655): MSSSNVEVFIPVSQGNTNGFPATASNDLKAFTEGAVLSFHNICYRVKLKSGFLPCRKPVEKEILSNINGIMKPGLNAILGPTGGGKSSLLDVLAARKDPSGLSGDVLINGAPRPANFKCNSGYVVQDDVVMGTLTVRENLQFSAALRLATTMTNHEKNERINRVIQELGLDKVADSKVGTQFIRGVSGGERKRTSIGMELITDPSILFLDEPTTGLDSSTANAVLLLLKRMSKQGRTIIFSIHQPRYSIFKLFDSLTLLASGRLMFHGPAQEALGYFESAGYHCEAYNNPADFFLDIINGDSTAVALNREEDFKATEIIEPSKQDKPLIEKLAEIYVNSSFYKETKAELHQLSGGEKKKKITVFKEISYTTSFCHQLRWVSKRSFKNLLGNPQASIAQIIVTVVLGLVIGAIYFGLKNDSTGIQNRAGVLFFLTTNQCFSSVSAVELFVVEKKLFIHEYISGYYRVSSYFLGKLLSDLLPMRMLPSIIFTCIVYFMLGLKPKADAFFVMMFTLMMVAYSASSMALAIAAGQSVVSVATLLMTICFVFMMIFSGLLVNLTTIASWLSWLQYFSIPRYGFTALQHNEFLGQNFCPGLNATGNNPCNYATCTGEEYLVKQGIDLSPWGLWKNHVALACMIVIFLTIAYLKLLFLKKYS
# Description: The IC-50 value of OBR 5-340 and MS 112 were determined according to the method described by Paturi D. K, et al in Int. J. Pharm. (2010), 384: 32-38. The source used for the determination was human recombinant CHO-K1 cells, while Hoechst 33342 (5 μm) was used as the substrate. The cells were incubated for 20 min at 37° C. and the detection was accomplished by fluorimetry.
# Fluorimetric Inhibition Assay:
# The percent of control is calculated using the following equation.
# In this formula, “Compound” is the individual reading in the presence of the test compound. “T1” is the mean reading in the absence of the test compound. Background is the mean reading in the presence of the highest effective concentration of the reference inhibitor.
# The percent of inhibition is calculated by subtracting the percent of control from 100. The IC50 value (concentration causing a half-maximal inhibition of the control value) is determined by non-linear regression analysis of the concentration-response curve using the Hill equation.
# CYP3A4 = experiment: Cytochrome P450 induction (DMPK studies); type: in vitro ADME
# Excerpt: (§1) Also no induction of CYP1A2, CYP2B6, and CYP3A4 could be found.
# CYP1A2 = experiment: Cytochrome P450 induction (DMPK studies); type: in vitro ADME
# Excerpt: as §1
# CYP2B6 [1] = experiment: Cytochrome P450 induction (DMPK studies); type: in vitro ADME
# Excerpt: as §1
# CYP1A = experiment: Cytochrome P450 inhibition (DMPK studies); type: in vitro ADME
# CYP2C9 = CYP2C9 (Homo sapiens, UniProt P11712); experiment: Cytochrome P450 inhibition (DMPK studies); type: in vitro ADME
# Sequence of CYP2C9 (P11712 whole entry): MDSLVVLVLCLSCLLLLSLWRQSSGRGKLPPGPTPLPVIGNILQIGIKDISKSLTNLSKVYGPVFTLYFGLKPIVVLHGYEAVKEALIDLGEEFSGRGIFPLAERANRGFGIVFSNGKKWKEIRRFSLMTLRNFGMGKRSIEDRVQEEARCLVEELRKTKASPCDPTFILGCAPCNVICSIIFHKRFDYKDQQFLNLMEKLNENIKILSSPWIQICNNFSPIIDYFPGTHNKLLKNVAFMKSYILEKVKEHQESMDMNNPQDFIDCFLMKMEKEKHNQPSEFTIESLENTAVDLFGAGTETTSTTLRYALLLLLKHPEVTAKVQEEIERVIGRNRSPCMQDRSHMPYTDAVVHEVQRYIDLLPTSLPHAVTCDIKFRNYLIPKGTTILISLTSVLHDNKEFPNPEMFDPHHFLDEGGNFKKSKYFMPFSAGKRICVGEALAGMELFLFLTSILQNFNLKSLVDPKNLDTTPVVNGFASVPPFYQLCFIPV
# Excerpt: as §1
# CYP2C8 = molecular target: T2, CYP2C8 (Homo sapiens, UniProt P10632); experiment: Cytochrome P450 inhibition (DMPK studies); type: in vitro ADME
# T2 sequence (P10632 1-490): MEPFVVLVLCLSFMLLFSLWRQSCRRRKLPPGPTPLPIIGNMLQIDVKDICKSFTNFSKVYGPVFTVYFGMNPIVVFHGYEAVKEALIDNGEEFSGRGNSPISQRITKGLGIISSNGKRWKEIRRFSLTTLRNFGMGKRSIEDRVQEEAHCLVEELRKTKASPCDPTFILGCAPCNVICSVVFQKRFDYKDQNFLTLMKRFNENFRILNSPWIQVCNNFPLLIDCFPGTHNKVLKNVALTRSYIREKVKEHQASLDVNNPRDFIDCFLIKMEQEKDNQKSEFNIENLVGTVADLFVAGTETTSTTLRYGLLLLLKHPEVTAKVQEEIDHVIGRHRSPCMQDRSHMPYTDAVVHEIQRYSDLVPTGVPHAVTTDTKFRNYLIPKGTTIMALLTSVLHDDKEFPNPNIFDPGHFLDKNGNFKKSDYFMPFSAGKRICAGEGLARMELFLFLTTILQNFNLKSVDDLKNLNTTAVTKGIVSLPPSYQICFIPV
# Excerpt: as §1
# CYP3A = experiment: Cytochrome P450 inhibition (DMPK studies); type: in vitro ADME
# Excerpt: as §1
# CYP2D6 = CYP2D6 (Homo sapiens, UniProt P10635); experiment: Cytochrome P450 inhibition (DMPK studies); type: in vitro ADME
# Sequence of CYP2D6 (P10635 whole entry): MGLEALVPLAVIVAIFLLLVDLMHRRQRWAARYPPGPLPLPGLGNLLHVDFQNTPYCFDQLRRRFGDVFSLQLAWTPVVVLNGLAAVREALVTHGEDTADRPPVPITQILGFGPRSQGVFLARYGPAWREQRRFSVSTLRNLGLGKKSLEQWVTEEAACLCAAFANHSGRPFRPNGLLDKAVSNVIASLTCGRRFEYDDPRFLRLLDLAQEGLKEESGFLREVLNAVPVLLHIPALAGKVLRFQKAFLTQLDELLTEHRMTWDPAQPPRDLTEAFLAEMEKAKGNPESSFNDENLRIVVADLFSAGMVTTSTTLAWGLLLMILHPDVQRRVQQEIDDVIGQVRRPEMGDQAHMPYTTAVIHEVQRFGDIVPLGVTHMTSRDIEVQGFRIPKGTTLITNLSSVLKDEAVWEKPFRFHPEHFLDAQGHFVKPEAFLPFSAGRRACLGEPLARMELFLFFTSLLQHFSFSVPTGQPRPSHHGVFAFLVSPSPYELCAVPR
# Excerpt: as §1
# CYP2C19 = CYP2C19 (Homo sapiens, UniProt P33261); experiment: Cytochrome P450 inhibition (DMPK studies); type: in vitro ADME
# Sequence of CYP2C19 (P33261 whole entry): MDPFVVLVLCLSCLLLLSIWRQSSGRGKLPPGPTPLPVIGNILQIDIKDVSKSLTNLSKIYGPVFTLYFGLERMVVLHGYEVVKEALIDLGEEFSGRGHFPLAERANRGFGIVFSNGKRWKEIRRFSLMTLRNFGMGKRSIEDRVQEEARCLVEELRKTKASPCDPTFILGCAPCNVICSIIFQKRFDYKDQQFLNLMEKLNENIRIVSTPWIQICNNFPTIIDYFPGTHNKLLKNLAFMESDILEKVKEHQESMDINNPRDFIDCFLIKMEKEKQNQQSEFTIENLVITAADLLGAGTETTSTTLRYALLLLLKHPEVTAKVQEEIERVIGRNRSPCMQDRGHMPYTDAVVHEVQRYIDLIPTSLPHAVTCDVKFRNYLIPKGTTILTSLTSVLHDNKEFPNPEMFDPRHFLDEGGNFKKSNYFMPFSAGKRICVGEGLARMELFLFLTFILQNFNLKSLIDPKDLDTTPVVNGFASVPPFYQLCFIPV
# Excerpt: as §1
# CYP2B6 [2] = molecular target: T3, CYP2B6 (Homo sapiens, UniProt P20813); experiment: Cytochrome P450 inhibition (DMPK studies); type: in vitro ADME
# T3 sequence (P20813 1-491): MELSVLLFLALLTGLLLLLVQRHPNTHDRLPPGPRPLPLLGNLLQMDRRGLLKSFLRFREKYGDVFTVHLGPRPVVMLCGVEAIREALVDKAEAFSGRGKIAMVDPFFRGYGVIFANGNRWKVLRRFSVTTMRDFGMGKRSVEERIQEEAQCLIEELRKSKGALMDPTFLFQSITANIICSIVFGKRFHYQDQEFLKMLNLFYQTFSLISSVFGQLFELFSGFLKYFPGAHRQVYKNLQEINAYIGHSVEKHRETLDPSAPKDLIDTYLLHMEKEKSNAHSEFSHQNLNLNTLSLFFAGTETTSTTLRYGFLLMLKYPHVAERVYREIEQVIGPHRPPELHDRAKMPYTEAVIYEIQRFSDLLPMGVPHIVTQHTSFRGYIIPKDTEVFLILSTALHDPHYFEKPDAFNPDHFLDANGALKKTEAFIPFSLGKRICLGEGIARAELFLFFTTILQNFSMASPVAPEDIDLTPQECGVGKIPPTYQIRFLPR
SMILES,IC50 (BCRP) [µM],induction of CYP3A4 (CYP3A4),induction of CYP1A2 (CYP1A2),induction of CYP2B6 (CYP2B6 [1]),inhibition of CYP1A (CYP1A),inhibition of CYP2C9 (CYP2C9),inhibition of CYP2C8 (CYP2C8),inhibition of CYP3A (CYP3A),inhibition of CYP2D6 (CYP2D6),inhibition of CYP2C19 (CYP2C19),inhibition of CYP2B6 (CYP2B6 [2])
"Nc1nc(-c2ccc(OC(F)(F)F)cc2)nc2[nH]nc(Nc3ccccc3)c12 [MS-112, 4-amino-3-phenylamino-6-[4-(trifluormethoxy)-phenyl]pyrazolo[3,4-d]pyrimidine]",~100,,,,,,,,,,
"Nc1nc(-c2ccccc2)nc2[nH]nc(Nc3ccc(C(F)(F)F)cc3)c12 [OBR-5-340, 4-amino-3-(4-trifluormethyl-phenyl)amino-6-phenylpyrazolo[3,4-d]pyrimidine]",1.7,no induction,no induction,no induction,does not inhibit,does not inhibit,does not inhibit,does not inhibit,does not inhibit,does not inhibit,does not inhibit
